Measured values from patent publication US5409949A, “Methylen-oxindole derivatives compositions and tyrosine kinase inhibition therewith” (Farmitalia Carlo Erba S.r.l., priority 1991, dated 1995).

What was measured:
v-abl kinase [1] = experiment: Autophosphorylation assay (v-abl kinase); type: biochemical; details: immunoprecipitated v-abl kinase, 10 μM ATP, 15 min, room temperature
Method: (§1) The tyrosine specific protein kinase activity of these compounds is shown by the in vitro tests described herebelow.
(§2) The enzyme used in the Abelson tyrosine kinase p95^v-ab which was produced and isolated as follows: 1 Liter cultures of HB-130 cells in LB medium, supplemented with ampicillin, were grown at 30° C. as described by Wang et al. in J. Biol. Chem. 260, 64 (1985). The expression of v-abl protein was induced by shifting the temperature to 42° C. for 3-4 h. The bacterial cells were collected on ice, centrifuged and frozen in liquid nitrogen. The cell pellet was lysed as described by Ferguson et al. in J. Biol. Chem. 260, 3652 (1985) and in Biochem. J. 257, 321 (1989). Briefly, bacterial proteins were removed by differential solubilization with sodium deoxycholate, NaCl and β-octylglucopyranoside in different steps. Insoluble v-abl protein was solubilized with 2M KSCN and dialyzed against 100 volumes of 50 mM Tris-HCl, pH 7.5, 1 mM EDTA and 0.1 mM dithiothreitol (buffer A). […]
For the autophosphorylation assay the v-abl kinase was immunoprecipitated with antiphosphotyrosine antibodies and the resulting immunocomplex analyzed in 50 μl of kinase buffer in the presence of 10 μM ATP and 10 μCi […]. […] Bands were located by autoradiography, excised and counted as above. […]

v-abl kinase [2] = experiment: Myelin Basic Protein phosphorylation assay; type: biochemical; details: myelin basic protein 56 μM as substrate, 10 μM cold ATP, pH 8.0, 22° C.
Method: as §1
as §2, with “A). The soluble proteins were separated by chromatography on a prepacked Mono-Q anion exchange column in a f.p.l.c. system.” for “A).”
The in vitro test with Myelin Basic Protein as substrate was carried out as follows: Protein phosphorylation was performed by incubating 40 ng of purified v-abl kinase, 1.5 μCi […] Bands were located by autoradiography, excised from gel and counted in a liquid scintillation counter.

Row | Compound | IC50 (v-abl kinase [1]) [nM] | IC50 (v-abl kinase [2]) [nM]
1 | O=C1Nc2ccc(O)cc2C1=Cc1c[nH]c2ccccc12 [5-Hydroxy-3-[(3'-indolyl)methylene]-2-oxindole] | 400 | 400
2 | O=C1Nc2ccccc2C1=Cc1c[nH]c2ccccc12 [3-[(3'-indolyl)methylen]-2-oxindole] | 10000 | 600
